Measurements from article PMC6017357, “In Vitro Inhibitory Effects of Synthetic Cannabinoid EAM-2201 on Cytochrome P450 and UDP-Glucuronosyltransferase Enzyme Activities in Human Liver Microsomes” (Molecules : A Journal of Synthetic Chemistry and Natural …, 2018).

Target: T1, UGT1A9 (Homo sapiens, UniProt O60656)
T1 construct: ultrapooled human liver microsomes (0.2 mg/mL), 5 mM UDPGA; from tissue; host or cells: ultrapooled human liver microsomes
T1 sequence (O60656 26-530): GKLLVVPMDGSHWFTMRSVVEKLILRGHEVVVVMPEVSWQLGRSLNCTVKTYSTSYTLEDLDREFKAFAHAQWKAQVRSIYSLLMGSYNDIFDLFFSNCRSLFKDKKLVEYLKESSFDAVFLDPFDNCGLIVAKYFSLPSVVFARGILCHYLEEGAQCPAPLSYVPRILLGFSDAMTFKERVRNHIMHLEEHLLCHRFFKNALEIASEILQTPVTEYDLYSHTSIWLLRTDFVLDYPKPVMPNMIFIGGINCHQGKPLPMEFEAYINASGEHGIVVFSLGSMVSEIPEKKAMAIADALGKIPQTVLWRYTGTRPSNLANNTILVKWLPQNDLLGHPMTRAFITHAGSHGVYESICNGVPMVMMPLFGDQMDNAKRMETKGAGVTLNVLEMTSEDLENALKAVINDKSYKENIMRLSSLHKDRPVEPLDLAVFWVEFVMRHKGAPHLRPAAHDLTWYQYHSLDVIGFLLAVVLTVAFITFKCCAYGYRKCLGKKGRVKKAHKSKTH
Assay: UGT1A9-catalyzed mycophenolic acid glucuronidation in human liver microsomes
Format: in vitro ADME
Settings: at 50 µM
Protocol: The inhibitory effects of EAM-2201 on UGT1A1, UGT1A3, UGT1A4, UGT1A6, UGT1A9 and UGT2B7 were evaluated using LC-MS/MS and the cocktail of UGT substrates as previously described. Each incubation mixture was prepared in a final volume of 100 µL as follows: ultrapooled human liver microsomes (0.2 mg/mL), 5 mM UDPGA, 10 mM magnesium chloride, alamethicin (25 µg/mL), 50 mM Tris buffer (pH 7.4), various concentrations of EAM-2201 in DMSO (final concentrations of 1–50 µM, 0.5% DMSO) and the UGT enzyme-specific substrates of two cocktail sets (set A: 0.5 µM SN-38, 2 µM chenodeoxycholic acid and 0.5 µM trifluoperazine; set B: 1 µM N-acetylserotonin, 0.2 µM mycophenolic acid and 1 µM naloxone, acetonitrile content, 0.5%). […] Supernatant from sets A and B (50 µL of each) was mixed and aliquots (5 µL) were analyzed by LC-MS/MS. […]
The metabolites formed from the six UGT cocktail substrates were simultaneously measured using LC-MS/MS [41]. […] Each metabolite was quantified via SRM in the negative ion mode: chenodeoxycholic acid 24-acyl-β-glucuronide, 567.2 > 391.0; mycophenolic acid glucuronide, 495.2 > 318.9; and propofol glucuronide (IS), 353.3 > 177.1; and in the positive ion mode: SN-38 glucuronide, 569.0 > 393.0; trifluoperazine glucuronide, 584.2 > 408.1; N-acetylserotonin-β-D-glucuronide, 395.2 > 219.0; naloxone 3-β-D-glucuronide, 504.0 > 310.0; and meloxicam (IS), 352.0 > 115.1. […]

`CCc1ccc(C(=O)c2cn(CCCCCF)c3ccccc23)c2ccccc12` [EAM-2201, (4-ethyl-1-naphthalenyl)[1-(5-fluoropentyl)-1H-indol-3-yl]-methanone] was tested, and the “inhibition of UGT1A9-catalyzed mycophenolic acid glucuronidation” value was “negligibly inhibited”.
